The record followed here is the supplement of paper PMC11003180.

Each structure is given as a SMILES string.

Assay in all cases: drug sensitivity score (DSS) from 5-dose viability curve (DSS (area-based score, 0 = no response)); higher = more sensitive (stronger viability inhibition); extreme values may be limits of the assay
For assay [1], the system named is MDCK wild-type - doxycycline. Conditions: doxycycline: none; 72 h. The method in brief: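 Parental MDCK cells without doxycycline were dispensed at 2000 cells/well onto pre-spotted 384-well plates. The plates held an oncology library of 528 drugs at five doses (1-10,000 nM) and were incubated 72 h at 37 °C. Viability was read as CellTiter-Glo luminescence and scaled per plate between vehicle and positive controls. Drug sensitivity scores came from dose-response curve fits in the Breeze pipeline.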

Assay [2] relates to MDCK p60AmotL2-inducible + doxycycline (p60AmotL2 expressing). Conditions: doxycycline: 10 ng/mL; 72 h. The method in brief:
(§1)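 Parental MDCK cells and MDCK cells with a doxycycline-inducible transgene were both grown with doxycycline at 10 ng/mL in the medium before plating, then dispensed at 2000 cells/well into 384-well plates pre-spotted with an oncology library of 528 drugs at five doses (1-10,000 nM). After 72 h at 37 °C, CellTiter-Glo luminescence was recorded and scaled on each plate between vehicle and positive controls. This scaled signal served as the viability readout, and drug sensitivity scores were derived from dose-response curve fits in the Breeze pipeline.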

For assay [3], the system named is MDCK wild-type + doxycycline. Conditions: doxycycline: 10 ng/mL; 72 h. The method in brief:
as §1

For the compound `CC(C)c1cc(C(=O)N2Cc3ccc(CN4CCN(C)CC4)cc3C2)c(O)cc1O` [Onalespib], the drug sensitivity score was 16.2 in assay [1], 18.8 in assay [2] and 18.2 in assay [3].
The like results for `CC(C)C[C@H](NC(=O)[C@@H](COC(C)(C)C)NC(=O)[C@H](Cc1ccc(O)cc1)NC(=O)[C@H](CO)NC(=O)[C@H](Cc1c[nH]c2ccccc12)NC(=O)[C@H](Cc1cnc[nH]1)NC(=O)[C@@H]1CCC(=O)N1)C(=O)N[C@@H](CCCNC(=N)N)C(=O)N1CCC[C@H]1C(=O)NNC(N)=O` [Goserelin] were, in that order, 0, 0 and 0.
The corresponding values for `COc1cc(N2CCC(N3CCN(C)CC3)CC2)ccc1Nc1ncnc(Nc2ccccc2S(=O)(=O)C(C)C)n1` [ASP3026] are 6.3, 9.5 and 6.5.
As for `C=C1C[C@@H]2CC[C@@]34C[C@H]5O[C@H]6[C@@H](O3)[C@H]3O[C@H](CC[C@@H]3O[C@H]6[C@H]5O4)CC(=O)C[C@@H]3[C@@H](OC)[C@@H](C[C@H](O)CN)O[C@H]3C[C@H]3O[C@@H](CC[C@@H]1O2)C[C@@H](C)C3=C` [Eribulin], the drug sensitivity score in assay [1] stood at 17.3; in assay [2], 23.4; in assay [3] it was 22.5.
Regarding `O=C(NOC[C@H](O)CO)c1ccc(F)c(F)c1Nc1ccc(I)cc1F`, the drug sensitivity score turned out to be 2.3 in assay [1], 11.9 in assay [2] and 3.9 in assay [3].
For the compound `CO[C@@]12[C@H](COC(N)=O)C3=C(C(=O)C(C)=C(N)C3=O)N1C[C@@H]1N[C@@H]12` [Mitomycin C], the drug sensitivity score in assay [1] amounted to 1.2; in assay [2], 0; in assay [3], 0.
For the compound `Cc1cccc(-c2[nH]c(CNc3ccccc3F)nc2-c2ccc3ncnn3c2)n1` [TEW-7197], the drug sensitivity score came out at 1.1 in assay [1], 4.3 in assay [2] and 0 in assay [3].
Take `CCN(CC)CCCC(C)Nc1c2ccc(Cl)cc2nc2ccc(OC)cc12` (centres undefined) [Mepacrine]: the drug sensitivity score amounted to 10.5 in assay [1], 15.2 in assay [2] and 16.2 in assay [3].
The like results for `CS(=O)(=O)c1ccc(-c2cnc(N)c(C(=O)Nc3ccccc3)n2)cc1` [VE-821] were, in that order, 0, 0 and 0.
The corresponding values for `Oc1ncnc2[nH]ncc12` [Allopurinol] are 0, 0 and 0.
As to `CO[C@H]1C[C@@H]2CC[C@@H](C)[C@@](O)(O2)C(=O)C(=O)N2CCCC[C@H]2C(=O)O[C@H]([C@H](C)C[C@@H]2CC[C@@H](OP(C)(C)=O)[C@H](OC)C2)CC(=O)[C@H](C)/C=C(\C)[C@@H](O)[C@@H](OC)C(=O)[C@H](C)C[C@H](C)/C=C/C=C/C=C/1C` [Ridaforolimus], the results for the drug sensitivity score in assay [1], in assay [2] and in assay [3] were 0, 9.8 and 0.6, respectively.
The like results for `Cn1nnc2c(C(N)=O)ncn2c1=O` [Temozolomide] were, in that order, 0, 0 and 0.
The corresponding values for `CNC(=O)c1nn(C)c2c1C(C)(C)Cc1cnc(Nc3ccc(N4CCN(C)CC4)cc3)nc1-2` [Milciclib] are 12.4, 13.2 and 14.5.
The like results for `CN1CCN(c2cc(C(=O)Nc3ccc4c(c3)-c3c(c(C(N)=O)nn3-c3ccc(F)cc3)CC4)c(Cl)cn2)CC1` [PHA 408] were, in that order, 0, 0.2 and 0.
As for `O=C(Nc1nc2cccc(-c3ccc(CN4CCS(=O)(=O)CC4)cc3)n2n1)C1CC1` [Filgotinib], the drug sensitivity score in assay [1], in assay [2] and in assay [3] was 0 throughout.
Turning to `O=c1[nH]c(=O)n([C@H]2C[C@H](O)[C@@H](CO)O2)cc1C(F)(F)F` [Trifluridine], the drug sensitivity score came to 1.4 in assay [1], 2.6 in assay [2] and 1.4 in assay [3].
On to `CC/C(=C(\c1ccccc1)c1ccc(OCCN(C)C)cc1)c1ccccc1` [Tamoxifen], for which the drug sensitivity score in assay [1] was 0; in assay [2] it was 1; in assay [3], 0.
With `CC1=C2C[C@H]3[C@@H](CC[C@@H]4C[C@H](NS(C)(=O)=O)CC[C@@]43C)[C@@H]2CC[C@@]2(C1)O[C@@H]1C[C@H](C)CN[C@H]1[C@H]2C` [Saridegib], the drug sensitivity score worked out at 0 in assay [1], 0.8 in assay [2] and 0 in assay [3].
As to `COc1cc2nccc(Oc3ccc(NC(=O)NC4CC4)c(Cl)c3)c2cc1C(N)=O` [Lenvatinib], the drug sensitivity score in assay [1], in assay [2] and in assay [3] was 0 in each case.
Turning to `C[C@@H]1C[C@H]2[C@@H]3CCC4=CC(=O)C=C[C@]4(C)[C@@]3(F)[C@@H](O)C[C@]2(C)[C@@]1(O)C(=O)CO` [Dexamethasone], the drug sensitivity score in assay [1], in assay [2] and in assay [3] was 0 throughout.
As to `Clc1ccccc1C(c1ccccc1)(c1ccccc1)n1cccn1` [TRAM-34], the drug sensitivity score in assay [1], in assay [2] and in assay [3] was 0 throughout.
Turning to `CC(C)(C)c1nc(-c2cccc(NS(=O)(=O)c3c(F)cccc3F)c2F)c(-c2ccnc(N)n2)s1` [Dabrafenib], the drug sensitivity score in assay [1], in assay [2] and in assay [3] was 0 throughout.
For the compound `Cc1cc2c(F)c(Oc3ncnn4cc(OC[C@@H](C)O)c(C)c34)ccc2[nH]1` [Brivanib], the drug sensitivity score in assay [1], in assay [2] and in assay [3] was 0 throughout.
Take `COc1cc(Nc2c(C#N)cnc3cc(OCCCN4CCN(C)CC4)c(OC)cc23)c(Cl)cc1Cl` [Bosutinib]: the drug sensitivity score in assay [1] is 7.5; in assay [2], 14.1; in assay [3], 10.4.
As to `C[C@H]1C[C@@H]2[C@H]([C@@H](O)C[C@@]3(C)[C@H]2CC[C@]3(O)C(=O)CO)[C@@]2(C)C=CC(=O)C=C12` [Methylprednisolone], the drug sensitivity score in assay [1], in assay [2] and in assay [3] was 0 each time.
Regarding `COc1nc(N)nc2c1ncn2[C@@H]1O[C@H](CO)[C@@H](O)[C@@H]1O` [Nelarabine], the drug sensitivity score in assay [1], in assay [2] and in assay [3] was 0 in each case.
`CC[C@H](CC#N)OC(=O)N[C@@H](C)c1cccc(NC(=O)Nc2ccc(-c3cnco3)c(OC)c2)c1` [AVN944]: the drug sensitivity score in assay [1] is 11.1; in assay [2], 18.5; in assay [3] it was 12.6.
Regarding `CC(C)(C#N)c1cc(Cn2cncn2)cc(C(C)(C)C#N)c1` [Anastrozole], the drug sensitivity score in assay [1], in assay [2] and in assay [3] was 0 in each case.
